Seven compounds from patent publication US7132428B2, “Pyrazoloisoquinoline derivative as kinase inhibitors for the treatment of various disorders” (Aventis Pharmaceuticals Inc., priority 2003, dated 2006) can be followed below.

For orientation: melting point means the temperature, or range, at which the solid turns liquid.

For data set [1], the system named is human peripheral blood lymphocytes. Kind of data set: Cytotoxicity by LDH release, LPS-stimulated human peripheral blood lymphocytes. It counts as cell-based. The procedure:
(§1) The pyrazoloisoquinoline derivatives according to the invention were tested for inhibitory activity against NIK in various in vitro assay systems. In this connection, human peripheral blood lymphocytes were preincubated for 1 h with different concentrations of the compounds and then stimulated for 24 h with LPS or IL1β. After that, a commercially obtainable ELISA test kit was used to measure the release of TNFα in the culture supernatant, and the IC50 for the given compound was determined. The cytotoxicity was measured by way of LDH release using a commercially obtainable test kit and the LD50 for the given compound was determined.
(Release of lactate dehydrogenase indicates damage to the cell membrane.)

Data set [2] shares this test system. As to the kind of experiment: Cytotoxicity by LDH release, IL1β-stimulated human peripheral blood lymphocytes. It counts as cell-based. The procedure: as §1

For `c1ccc(-c2nc3c(-c4ccccc4)n[nH]c3c3ccccc23)cc1` [Example 1, 3,5-Diphenyl-1H-pyrazolo[4,3-c]isoquinoline], the “Cytotoxicity LD50” value in data set [1] and in data set [2] was more than 100 µM in each case. On to `COc1cccc(-c2nc3c(C)n[nH]c3c3ccccc23)c1` [Example 2, 5-(3-Methoxyphenyl)-3-methyl-1H-pyrazolo[4,3-c]isoquinoline], for which the “Cytotoxicity LD50” value in data set [1] and in data set [2] was more than 100 µM throughout. For the compound `Cc1n[nH]c2c1nc(-c1cccc(O)c1)c1ccccc12` [Example 3, 3-(3-Methyl-1H-pyrazolo[4,3-c]isoquinolin-5-yl)phenol], the “Cytotoxicity LD50” value in data set [1] and in data set [2] was more than 100 µM in each case. For `CCc1n[nH]c2c1nc(-c1ccccc1)c1ccccc12` [Example 46, 5-phenyl-3-ethyl-1H-pyrazolo[4,3-c]isoquinoline], the melting point was 250 to 251 °C. The same measure, in the same setting: for `CCc1n[nH]c2c1nc(-c1cccnc1)c1ccccc12` [Example 47, 3-Ethyl-5-(pyridin-3-yl)-1H-pyrazolo[4,3-c)isoquinoline] the value was 219 to 220 °C; for `Cc1n[nH]c2c1nc(-c1ccccc1)c1cc(Br)ccc12` [Example 62, 7-Bromo-3-methyl-5-phenyl-1H-pyrazolo[4,3-c]isoquinoline], 299 to 300 °C. With `FC(F)(F)c1n[nH]c2c1nc(-c1ccccc1)c1ccccc12` [Example 75, 5-phenyl-3-trifluoromethyl-1H-pyrazolo[4,3-c]isoquinoline], the melting point lay in the range of 264 to 265 °C.
